# Literature values as cited in US20230126271A1, “DEGRADER-ANTIBODY CONJUGATES AND METHODS OF USING SAME” (Anglex, Inc., priority 2020, published 2023).
# Experiments:
# [1] = in vivo
# [2] = in vivo; remark: listed apart in the source
Compound,toxicity in the clinic [1],patients who experienced heart attacks while being treated [2]
CN(C)CC#Cc1ccc(OCCCc2sc(N3CCc4cccc(C(=O)Nc5nc6ccccc6s5)c4C3)nc2C(=O)O)c(F)c1 [A115463],on-target and dose-limiting thrombocytopenia,–
CC1(C)CCC(c2ccc(Cl)cc2)=C(CN2CCN(c3ccc(C(=O)NS(=O)(=O)c4ccc(N[C@H](CCN5CCOCC5)CSc5ccccc5)c(S(=O)(=O)C(F)(F)F)c4)cc3)CC2)C1 [ABT 263],on-target and dose-limiting thrombocytopenia,–
"COc1ccc(/C=C\c2cc(OC)c(OC)c(OC)c2)cc1OP(=O)(O)O [CA4P, Combretastatin]",–,seven
